# Columns and labels:
# S. aureus ATCC 13709 = test: Combination with Rifampicin in treatment of osteomyelitis induced in rats; format: in vivo, rat; details: 34 mg/kg 54 IV + 20 mg/kg Rifampicin s.c. on days 14, 15, 16, 17 after surgery; titer on day 43
# Procedure: The cells were washed twice with phosphate-buffered saline (PBS) and resuspended in BHIB supplemented with 10% (vol./vol.) fetal bovine serum at a density of approximately 10^10 colony forming units (CFU)/ml (based upon turbidimetry). The suspension was aliquoted and a portion was used to check the CFU count. The culture was stored frozen (−80° C.) and was used without subculture. For use as an inoculum the culture was thawed, diluted in PBS and kept in an ice bath until it was used.
# Animals were infected as described by O'Reilly et al. (Antimicrobial Agents and Chemotherapy (1992), 36(12): 2693-97) to generate the bone infection. Female CD rats (age, 57 to 70 days; n=5/group; Charles River, St-Constant, Canada) were anaesthetized by isofluorane before and during the surgery. Following complete induction of anesthesia, the rat was placed ventral side up and hair was shaved from the surgical site. The skin over the leg was cleaned and disinfected (proviodine-ethanol 70%). A longitudinal incision below the knee joint was made in the sagital plane. The incision was made over the bone below the “knee joint” (tibia head or condyle) but not completely extending to the ankle. A high speed drill fitted with a 2 mm bulb bit was used to drill a hole into the medullar cavity of the tibia. […]
# [1] = Bone powder binding, LC/MS detection; details: 100 μM compound, Tris-HCl pH 7, 0.15M NaCl, ground rat tibia bone, 10 min
# Procedure: The ability of the example molecules to bind to bone powder was established in two parallel fashions, using either LC/MS or fluorometric detection. For LC/MS detection, a stock solution (5 mM) of the compound to be tested was added to 0.1M Tris-HCl buffer pH 7, 0.15M NaCl to reach a final concentration of 100 μM. Triplicate samples (1 mL) of the compound solutions were intensively shaken for 10 min with or without 25 mg of fresh or 20 mg of vacuum dried ground rat tibia bone. The samples were then centrifuged for 15 min at 10 000 g. The presence of unbound compound was measured by injection of 30 μL of each of the supernatants into an Agilent 1100™ LC/UV system. For fluorometric detection, an individual compound was dissolved in PBS or water (compound 52) and resuspended at a concentration of 1 mg/ml in a slurry of bone meal powder (Now Foods, Bloomingdale, Ill., USA) in PBS at 10 mg/ml. The suspension of drug/prodrug in bone meal powder was incubated at 37° C. for 1 h to allow for binding, and centrifuged at 13 000 rpm for 2 min, before recovering the supernatant. The bone meal powder pellet was then washed three times with 1 ml of PBS. All supernatants were saved and assessed for fluoroquinolone content by fluorescence measurements at excitation/emission wavelengths of 280/465 nm. The amount of fluoroquinolone was determined from standard curves generated for each experiment. Amount of drug/prodrug bound to bone powder was deduced from the difference between the input amount (typically 1 mg) and the amount recovered in the supernatants after binding. In all binding experiments, >99% of input drug was recovered in the supernatant for the parent drugs.
# [2] = Regenerated moxifloxacin in infected and uninfected rat tibiae; format: in vivo; details: 52 IV 15.8 or 31.6 mg/kg one day after surgery; tibiae one and six days after treatment
# Procedure: Rats were infected as in Example 7, and treated IV with either 15.8 or 31.6 mg/kg of body weight of prodrug 52 one day after surgery. One day and six days following the treatment, the tibiae were collected as described previously. The levels of regenerated moxifloxacin 3 were determined as follows.
# The experimentally obtained whole tibia was ground to a powder which was suspended in 5% formic acid in methanol (500 mg/1.6 ml) to extract the released moxifloxacin 3. The mixture was vortexed for 10 minutes and centrifuged for 20 minutes at 1250 g.
# Standards (from 5 to 1000 ng), QCs (25 and 250 ng) and blanks were prepared (in duplicate) as follows: to blank tibia powder (50 mg, not dried) was added the 5% formic acid solution in methanol (160 μl) and the spiking solution of moxifloxacin 3 in water (10 μl). The mixtures were vortexed for 10 minutes and centrifuged for 10 minutes at 2500 g. The supernatant was transferred into another vial, spiked with the internal standard, vortexed and evaporated to dryness. In each case, the resulting dried residues (samples, standards, QCs and blanks) were reconstituted in 200 μl of water, vortexed for 15 min and centrifuged for 15 min at 10 000 g. The solution (20 μl) was injected into the LC/MS. The LC/MS method is as described in Example 6.
SMILES,"bacterial titer in the infected tibiae, combination with Rifampicin (S. aureus ATCC 13709)",Binding to bone (%) LC/MS [1] [%],"level of regenerated moxifloxacin 3, uninfected versus infected tibiae [2]"
"COc1c(N2CCNC(C)C2)c(F)cc2c(=O)c(C(=O)OCC(=O)NC(P(=O)(O)O)P(=O)(O)O)cn(C3CC3)c12 (stereo not drawn) [Compound 54, (1,1-Bisphosphonomethylcarbamoyl)methyl 7-(3-methylpiperazin-1-yl)-1-cyclopropyl-6-fluoro-1,4-dihydro-8-methoxy-4-oxoquinoline-3-carboxylate]",statistically significant decrease (p=0.007),,
"COc1c(N2C[C@@H]3CCCN[C@@H]3C2)c(F)cc2c(=O)c(C(=O)OCC(=O)NC(P(=O)(O)O)P(=O)(O)O)cn(C3CC3)c12 [Compound 52, (1,1-Bisphosphonomethylcarbamoyl)methyl 1-cyclopropyl-6-fluoro-1,4-dihydro-7-((4aS,7aS)-octahydropyrrolo[3,4-b]pyridin-6-yl)-8-methoxy-4-oxoquinoline-3-carboxylate]",,94.2 ± 3.2,not significantly different

# — patent US20080287396A1, “Phosphonated Fluoroquinolones, Antibacterial Analogs Thereof, and Methods for the Prevention and Treatment of Bone and Joint Infections” (TARGANTA THERAPEUTICA INC., priority 2005, published 2008)
